Like-named read-outs stand apart in the source and are kept apart here.
Assays:
Type in all cases: cell-based
[1] = tested on: MCF-7 (human breast adenomatous tumor); assay: SRB cytotoxicity assay, MCF7; settings: read-out: ED50 MCF7
Method: (§1) Human tumor cells, including MCF-7 (human breast adenomatous tumor), MCF-7/DOX (adriamycin resistant cell strain), MRS-SA (human uterine sarcoma), MES-SA/DX5 (adriamycin resistant cell strain), A 549 (human non-small cell lung), SKOV-3 (human ovarian), SKMEL-2 (human melanoma), XF-498 (human CNS), HCT-15 (human colon) were incubated at 37° C. in the presence of 5% CO2 using a DMEM culture medium. The respective cells were seeded into each well of 96-well plates at a concentration of 2×10^3˜5×10^3 cells/well. […] Each cell line of the resultant plates was fixed with trichloroacetic acid (TCA), stained with 0.4% SRB solution and rinsed with 1% acetic acid. Thereafter, the dye was dissolved in 10 mM Tris base to measure the optical density (OD) at 520 nm.

[2] = tested on: MCF-7/DOX (adriamycin resistant cell strain); assay: SRB cytotoxicity assay, MCF-7/DOX; settings: Homo sapiens, MCF7-DOX, read-out: ED50 MCF-7/DOX
Method: as §1

[3] = tested on: MES-SA (human uterine sarcoma); assay: SRB cytotoxicity assay, MES-SA; settings: read-out: ED50 MES-SA
Method: as §1

[4] = tested on: MES-SA/DX5 (adriamycin resistant cell strain); assay: SRB cytotoxicity assay, MES-SA/DX5; settings: Homo sapiens, read-out: ED50 MES-SA/DX5
Method: as §1

[5] = tested on: A 549 (human non-small cell lung); assay: SRB cytotoxicity assay, A549; settings: read-out: ED50 A549
Method: as §1

SKOV-3 (human ovarian) = assay: SRB cytotoxicity assay, SK-OV-3; settings: 72 hours, read-out: ED50 SK-OV-3
Method: as §1

SKMEL-2 (human melanoma) = assay: SRB cytotoxicity assay, SK-MEL-2; settings: read-out: ED50 SK-MEL-2
Method: as §1

XF-498 (human CNS) = assay: SRB cytotoxicity assay, XF498; settings: 72 hours, read-out: ED50 XF498
Method: as §1

HCT-15 (human colon) = assay: SRB cytotoxicity assay, HCT15; settings: read-out: ED50 HCT15
Method: as §1

[6] = tested on: BALB/c mouse spleen cell (responding) and DBA/2 mouse spleen cell (stimulating)
Method: MLR tests were carried out to determine the immunosuppressive effect of an immunosuppressive candidate material. When a responding cell (BALB/c mouse spleen cell) and a stimulating cell (DBA/2 mouse spleen cell) were cultured separately, the cells grew little. On the contrary, when the cells were simultaneously cultured, the cells were proliferated due to induction of an antigen-antibody reaction. The proliferated cells were treated with the immunosuppressive candidate material for measurement of the proliferation inhibitory extent.
After culturing for 72 hours at a CO2 incubator, a 20 μl MTS solution was added to each well, followed by further culturing for 2 to 4 hours and measuring OD at […] by using ELISA.

[7] = tested on: BALB/c mouse spleen cells, B cells activated with lipopolysaccharide (LPS); assay: Immunosuppressive effect test using BALB/c mouse spleen cells, LPS (B cells); settings: 20 μg/ml lipopolysaccharide, 72 hours, MTS, FIGS. 2 and 3
Method: (§2) This test was carried out to determine the immunosuppressive effect of an immunosuppressive candidate material by checking anti-proliferation of T cells and B cells. To identify the proliferation inhibitory extent, responding cells (BALB/c mouse spleen cells) were treated with an immunosuppressive candidate material, lipopolysaccharide (LPS) as a B cell activator and concanvalin A (ConA) as a T cell activator. It is known that the responding cells treated with LPS induce proliferation of B cells and those treated with ConA induce proliferation of T cells.
(§3) Responding cells (BALB/c mouse spleen cells) were seeded into each well of 96-well plates at a concentration of 2×10^5 cells/well. […] After culturing for 72 hours at a CO2 incubator, a 20 μl MTS solution was added to each well, followed by further culturing for 2 to 4 hours and measuring OD at 490 nm using ELISA.

[8] = tested on: BALB/c mouse spleen cells, T cells activated with concanvalin A (ConA); assay: Immunosuppressive effect test using BALB/c mouse spleen cells, ConA (T cells); settings: 2 μg/ml of ConA, 72 hours, MTS, FIGS. 2 and 3
Method: as §2, §3

CC(=O)O[C@H]1C(=O)[C@@]2(C)[C@H]([C@H](OC(=O)c3ccccc3)[C@]3(O)C[C@H](OC(=O)[C@H](O)[C@@H](NC(=O)c4ccccc4)c4ccccc4)C(C)=C1C3(C)C)[C@]1(OC(C)=O)CO[C@@H]1C[C@@H]2O [Taxol, reference compound]
EC50 ([1]; MCF7, SRB, 72 hours): 0.04 nM | EC50 ([2]; SRB, 72 hours): 943 nM | EC50 ([3]; SRB, 72 hours): 0.02 nM | EC50 ([4]; MES-SA/Dx5, SRB, 72 hours): 1150 nM | EC50 ([5]; A549, SRB, 72 hours): 0.3 nM | EC50 (SKOV-3 (human ovarian)): 1.2 nM | EC50 (SKMEL-2 (human melanoma); SK-MEL-2, SRB, 72 hours): 0.1 nM | EC50 (XF-498 (human CNS)): 1.7 nM | EC50 (HCT-15 (human colon); HCT-15, SRB, 72 hours): 0.1 nM

COc1cc2c(c(OC)c1OC)-c1ccc(SC)c(=O)cc1[C@@H](NC(=O)c1cccc(CO[N+](=O)[O-])c1)CC2 [Compound 12]
EC50 ([1]; MCF7, 72 h): 0.02 nM | EC50 ([2]; 72 h): 28 nM | EC50 ([3]; 72 h): 0.01 nM | EC50 ([4]; MES-SA/Dx5, 72 h): 115 nM | EC50 ([5]; A549, 72 h): 0.1 nM | EC50 (SKOV-3 (human ovarian)): 0.3 nM | EC50 (SKMEL-2 (human melanoma); SK-MEL-2, 72 h): 0.1 nM | EC50 (XF-498 (human CNS)): 0.2 nM | EC50 (HCT-15 (human colon); HCT-15, 72 h): 0.1 nM | immunosuppressive effect [6]: good immunosuppressive effect | anti-proliferation of B cells [7]: remarkable anti-proliferous effect | anti-proliferation of T cells [8]: remarkable anti-proliferous effect

From patent publication US7119229B2 (priority 2001, dated 2006)
